Data as given in patent US20090105250A1, “COMPOUNDS AND COMPOSITIONS AS PROTEIN KINASE INHIBITORS” (IRM LLC, priority 2005, published 2009).

Legend:
Assay type in all cases: cell-based
Flt-3 = molecular target: T1, Flt-3 (Homo sapiens, UniProt P36888, cells depend on it, form not given); experiment: FLT3 (Cellular Assay), Ba/F3-FLT3-ITD proliferation; conditions: read-out: IC50 for Flt-3
T1 sequence (P36888 1-993): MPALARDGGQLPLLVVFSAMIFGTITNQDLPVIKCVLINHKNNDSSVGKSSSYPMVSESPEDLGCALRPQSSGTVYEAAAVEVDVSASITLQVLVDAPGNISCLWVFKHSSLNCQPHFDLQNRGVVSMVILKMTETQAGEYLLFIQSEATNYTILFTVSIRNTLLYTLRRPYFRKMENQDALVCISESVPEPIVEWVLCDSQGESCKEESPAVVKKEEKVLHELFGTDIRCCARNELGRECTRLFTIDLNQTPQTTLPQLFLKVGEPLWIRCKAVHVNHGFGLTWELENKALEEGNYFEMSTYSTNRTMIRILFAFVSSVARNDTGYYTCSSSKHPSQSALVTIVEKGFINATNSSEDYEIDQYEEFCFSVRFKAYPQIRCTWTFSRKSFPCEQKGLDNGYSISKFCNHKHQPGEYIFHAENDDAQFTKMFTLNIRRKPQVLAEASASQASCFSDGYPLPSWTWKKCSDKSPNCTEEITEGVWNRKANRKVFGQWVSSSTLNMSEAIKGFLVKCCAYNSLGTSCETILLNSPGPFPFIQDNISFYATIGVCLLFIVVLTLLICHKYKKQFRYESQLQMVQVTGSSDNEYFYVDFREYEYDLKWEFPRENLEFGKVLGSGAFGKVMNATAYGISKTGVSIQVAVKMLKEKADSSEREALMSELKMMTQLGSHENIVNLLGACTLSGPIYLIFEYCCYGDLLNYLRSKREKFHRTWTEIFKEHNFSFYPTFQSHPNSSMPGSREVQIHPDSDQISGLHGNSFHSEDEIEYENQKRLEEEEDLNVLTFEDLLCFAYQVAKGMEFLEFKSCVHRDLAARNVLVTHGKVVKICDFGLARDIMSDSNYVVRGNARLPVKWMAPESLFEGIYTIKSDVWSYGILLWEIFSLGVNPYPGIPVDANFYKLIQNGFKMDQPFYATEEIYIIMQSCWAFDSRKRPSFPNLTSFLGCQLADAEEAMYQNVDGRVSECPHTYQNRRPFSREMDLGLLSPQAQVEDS

T315I Bcr-abl = molecular target: T2, T315I Bcr-abl (Homo sapiens, UniProt P00519, T315I); experiment: Proliferation of Ba/F3 cells expressing mutant Bcr-abl T315I
T2 construct: expressed in transfected cells; host or cells: Ba/F3 murine pro-B cells; the other entry of the earlier key: BCR (P11274, Breakpoint cluster region protein)
Description: (§1) Ba/F3-p210 cells are plated into 96 well TC plates at a density of 15,000 cells per well. 50 μL of two fold serial dilutions of the test compound (Cmax, is […]) are added to each well (STI571 is included as a positive control). After incubating the cells for 48 hours at 37° C., 5% CO2, 15 μL of MTT (Promega) is added to each well and the cells are incubated for an additional 5 hours. The optical density at 570 nm is quantified spectrophotometrically and IC50 values, the concentration of compound required for 50% inhibition, determined from a dose response curve.
(§2) Compounds of the invention are tested for their antiproliferative effect on Ba/F3 cells expressing either wild type or the mutant forms of BCR-Abl (G250E, E255V, T315I, F317L, M351T) that confers resistance or diminished sensitivity to STI571. The antiproliferative effect of these compounds on the mutant-BCR-Abl expressing cells and on the non transformed cells were tested as described above. The IC50 values of the compounds lacking toxicity on the untransformed cells were determined from the dose response curves obtained as describe above.

wild type Bcr-abl = molecular target: T3, wild type Bcr-abl (Homo sapiens, UniProt P00519); experiment: Proliferation of Ba/F3 cells expressing wild type Bcr-abl
T3 construct: expressed in transfected cells; host or cells: Ba/F3 murine pro-B cells; the other entry of the earlier key: BCR (P11274, Breakpoint cluster region protein)
Description: The murine cell line used is the Ba/F3 murine pro-B cell line transformed with BCR-Abl cDNA (Ba/F3-p210). These cells are maintained in RPMI/10% fetal calf serum (RPMI/FCS) supplemented with penicillin 50 μg/mL, streptomycin 50 μg/mL and L-glutamine 200 mM. Untransformed Ba/F3 Ba/F3 cells are similarly maintained with the addition of murine recombinant IL3.
as §1
as §2, with “The antiproliferative effect of these compounds on the mutant-BCR-Abl expressing cells and on the non transformed cells were tested as described above.” left out

PDGFRβ = molecular target: T4, PDGFRβ (Homo sapiens, UniProt P09619); experiment: PDGFRβ (Cellular Assay), Ba/F3-Tel-PDGFRβ proliferation; conditions: read-out: IC50 for PDGFRβ
T4 construct: fused on or other part: P41212 (Transcription factor ETV6)

F317L Bcr-abl = molecular target: T5, F317L Bcr-abl (Homo sapiens, UniProt P00519, F317L); experiment: Proliferation of Ba/F3 cells expressing mutant Bcr-abl F317L
T5 construct: expressed in transfected cells; host or cells: Ba/F3 murine pro-B cells; the other entry of the earlier key: BCR (P11274, Breakpoint cluster region protein)
Description: as §1, §2

M351T Bcr-abl = molecular target: T6, M351T Bcr-abl (Homo sapiens, UniProt P00519, M351T); experiment: Proliferation of Ba/F3 cells expressing mutant Bcr-abl M351T
T6 construct: expressed in transfected cells; host or cells: Ba/F3 murine pro-B cells; the other entry of the earlier key: BCR (P11274, Breakpoint cluster region protein)
Description: as §1, §2

G250E Bcr-abl = molecular target: T7, G250E Bcr-abl (Homo sapiens, UniProt P00519, G250E); experiment: Proliferation of Ba/F3 cells expressing mutant Bcr-abl G250E
T7 construct: expressed in transfected cells; host or cells: Ba/F3 murine pro-B cells; the other entry of the earlier key: BCR (P11274, Breakpoint cluster region protein)
Description: as §1, §2

E255V Bcr-abl = molecular target: T8, E255V Bcr-abl (Homo sapiens, UniProt P00519, E255V); experiment: Proliferation of Ba/F3 cells expressing mutant Bcr-abl E255V
T8 construct: expressed in transfected cells; host or cells: Ba/F3 murine pro-B cells; the other entry of the earlier key: BCR (P11274, Breakpoint cluster region protein)
T8 sequence (P00519 229-512 E255V limits assumed): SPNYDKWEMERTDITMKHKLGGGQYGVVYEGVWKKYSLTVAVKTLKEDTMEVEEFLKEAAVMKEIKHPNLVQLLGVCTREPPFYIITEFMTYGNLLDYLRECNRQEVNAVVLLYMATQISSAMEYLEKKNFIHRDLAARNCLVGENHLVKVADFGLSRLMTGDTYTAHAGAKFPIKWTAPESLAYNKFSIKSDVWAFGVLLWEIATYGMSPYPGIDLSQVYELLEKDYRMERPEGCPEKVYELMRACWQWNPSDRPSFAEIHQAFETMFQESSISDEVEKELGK
Description: as §1, §2

T4 sequence (P09619 600-962 limits assumed, change not shown): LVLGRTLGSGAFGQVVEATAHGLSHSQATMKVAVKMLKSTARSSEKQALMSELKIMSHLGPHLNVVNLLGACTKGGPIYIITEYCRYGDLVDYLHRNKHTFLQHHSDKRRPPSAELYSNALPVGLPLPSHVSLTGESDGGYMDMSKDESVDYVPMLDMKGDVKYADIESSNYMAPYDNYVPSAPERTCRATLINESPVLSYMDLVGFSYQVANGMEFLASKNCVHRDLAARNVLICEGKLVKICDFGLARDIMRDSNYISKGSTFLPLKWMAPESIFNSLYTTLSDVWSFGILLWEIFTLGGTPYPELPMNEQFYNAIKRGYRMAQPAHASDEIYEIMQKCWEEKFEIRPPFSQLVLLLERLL

Compound `Cc1cn(-c2cc(C(=O)Nc3ccc(C)c(NC(=O)c4cnc(NCCO)s4)c3)cc(C(F)(F)F)c2)cn1` [Compound 5, 2-(2-Hydroxy-ethylamino)-thiazole-5-carboxylic acid {2-methyl-5-[3-(4-methyl-imidazol-1-yl)-5-trifluoromethyl-benzoylamino]-phenyl}-amide] has a GI50 (Flt-3) of 41 nM.

Compound `CCN1CCN(c2cc(Nc3ncc(C(=O)Nc4cc(NC(=O)c5cc(-n6cnc(C)c6)cc(C(F)(F)F)c5)ccc4C)s3)nc(C)n2)CC1` [Example 29, 2-[6-(4-ethyl-piperazin-1-yl)-2-methyl-pyrimidin-4-ylamino]-thiazole-5-carboxylic acid {2-methyl-5-[3-(4-methyl-imidazol-1-yl)-5-trifluoromethyl-benzoylamino]-phenyl}-amide] has an IC50 (T315I Bcr-abl) of 570 nM and an IC50 (wild type Bcr-abl) of 8 nM.

In the case of `Cc1cn(-c2cc(C(=O)Nc3ccc(C)c(NC(=O)c4cnc(Nc5cc(N6CCOCC6)nc(C)n5)s4)c3)cc(C(F)(F)F)c2)cn1` [Example 28, 2-(2-methyl-6-morpholin-4-yl-pyrimidin-4-ylamino)-thiazole-5-carboxylic acid {2-methyl-5-[3-(4-methyl-imidazol-1-yl)-5-trifluoromethyl-benzoylamino]-phenyl}-amide], the GI50 (PDGFRβ) is reported as 5 nM.

`CCN1CCN(c2cc(Nc3ncc(C(=O)Nc4cc(NC(=O)c5cccc(C(F)(F)F)c5)ccc4C)s3)nc(C)n2)CC1` [Example 8, 2-[6-(4-ethyl-piperazin-1-yl)-2-methyl-pyrimidin-4-ylamino]-thiazole-5-carboxylic acid [2-methyl-5-(3-trifluoromethyl-benzoylamino)-phenyl]-amide] was tested, and the IC50 (F317L Bcr-abl) was 5 nM, the IC50 (M351T Bcr-abl) was 5 nM and the IC50 (G250E Bcr-abl) was 2290 nM. It also gave an IC50 (E255V Bcr-abl) of 12 nM, an IC50 (T315I Bcr-abl) of 1270 nM and an IC50 (wild type Bcr-abl) of 5 nM.
